assay: gradient 5% acetonitrile 3 min, to 50% in 2 min, to 85% in 15 min, held 3 min, 100 µL/min; details: column: Zorbax Extend-C18 2.1 x 50 mm; eluents: water / acetonitrile, 0.1% formic acid
Summary of the method: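 Mixtures of ~100 pure standards were chromatographed on a Zorbax Extend-C18 column (2.1 × 50 mm, 1.8 μm) at 100 μL/min using water and acetonitrile, each with 0.1% formic acid. Detection used a quadrupole time-of-flight mass spectrometer in positive and negative ionization mode, and data collection spanned 3 months. Retention time was obtained from adduct peaks picked computationally and each checked manually.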

Compound | RP-LC retention time
CCc1nccn1Cc1noc(-c2cccc(Cl)c2)n1 | 656 s
Clc1ccc(Nc2c(-c3ccc(N4CCOCC4)cc3)nc3cnccn23)cc1 | 842 s
COC(=O)c1cc2c(=O)n(-c3cccc(Cl)c3)ccc2nc1C | 878 s
Cc1ccc2c(=O)c3cccc(CC(=O)O)c3oc2c1C | 860 s
CCOc1ccc(OCC)c(NC(=O)CCc2c(-c3ccc(Cl)cc3)nc3ccccn23)c1 | 788 s
CC(C)CCN1CCC(N2CCN(S(=O)(=O)Cc3ccc(F)cc3Cl)CC2)C1=O (stereo not given) | 682 s
O=C1CC(c2nc(-c3ccc(Cl)cc3)no2)CN1c1ccc(F)cc1 (stereo not given) | 1000 s
Fc1ccc(Cl)cc1-c1nc(-c2ccc(-n3cccn3)nc2)no1 | 1290 s
Cc1ccc(-c2noc(C3CCCN3S(=O)(=O)c3ccc(Br)cc3)n2)cc1 (stereo not given) | 1230 s
CCc1nc(-c2cccc(-c3noc(CN4C(=O)COc5ccc(Cl)cc54)n3)c2)cs1 | 1240 s
COCCNC(=O)Cc1ccc(NC(=O)c2ccc(Br)o2)cc1 | 637 s
Cc1ccccc1-c1nnc(CSc2nnc(NC(=O)c3cccs3)s2)o1 | 908 s
COc1cc2c(cc1OC)C(C(=O)N1CC(C)CC(C)C1)C(c1cccnc1)N(C)C2=O (stereo not given) | 659 s
COc1ccc(C)cc1NC(=O)c1cn2c(n1)CSCC2 | 841 s
Cc1cc(=O)n(CC(=O)Nc2cccc(C)c2C)c(N2CCOCC2)n1 | 673 s
COc1ccc2[nH]cc(CCNC(=O)c3cc(Cl)ccc3Cl)c2c1 | 878 s
O=C(Nc1cccc(C(F)(F)F)c1)c1cc2ncc(Br)cn2n1 | 982 s
Cc1oc(-c2ccc(NC(=O)c3ccc(Cl)s3)cc2)nc1Cn1cccn1 | 980 s
NC1CC1c1ccccc1 (stereo not given) | 621 s
CCN(CC)CCNC(=O)C1COc2ccc(OC)cc2C1 (stereo not given) | 602 s
Cc1cc(C)nc(Nc2nc(CC(=O)NCCc3ccc(S(N)(=O)=O)cc3)cs2)n1 | 604 s
N#C/C(=C\c1ccc(-c2cc(Cl)ccc2Cl)o1)C(=O)Nc1cccc2ncccc12 | 1110 s
COc1ccc(CNC(=O)C2(c3ccc(NC(C)=O)cc3)CCCCC2)c(OC)c1 | 841 s
COc1ccc(N2CC(NC(=O)C(=O)c3c[nH]c4ccccc34)CC2=O)cc1 (stereo not given) | 761 s
COc1ccc(CNC(=O)C2c3ccccc3C(=O)N3CCc4ccccc4C23)c(OC)c1 (stereo not given) | 796 s
Cc1ccc(S(=O)(=O)N2CCN(c3ccc(-c4ccc(F)cc4)nn3)CC2)s1 | 870 s

Compound | RP-LC retention time
COCCC(=O)Nc1ccc2c(c1)CCC(=O)N2C | 609 s
COc1cc(CCNCc2c(C(=O)O)n(C)c3ccccc23)cc(OC)c1OC | 656 s
Cc1ccc(C)c(N2C(=O)CN(S(C)(=O)=O)CC2(C)C(=O)NCc2ccc(Cl)cc2)c1 (stereo not given) | 889 s
CCS(=O)(=O)N1C[C@@H](COC)[C@H](C(N)=O)C1 | 560 s
Cc1noc(-c2cccc(OC3CN(C(=O)c4cnn(C)c4)C3)c2)n1 | 700 s
CCS(=O)(=O)Nc1ccc(S(=O)(=O)Nc2nc(C)cc(C)n2)cc1 | 598 s
Cc1nn2c(CNC(=O)c3cccc(C(F)(F)F)c3)c(C)nc2s1 | 688 s
COc1ccc(N2CCN(C3CC(=O)N(Cc4ccc(N5CCCC5=O)cc4)C3=O)CC2)cc1 (stereo not given) | 662 s
CCOc1ccc(CN(Cc2cc(=O)n3cc(Cl)ccc3n2)CC(C)C)cc1 | 734 s
Cc1nn(C)cc1CN1CC(F)(F)C[C@H]1c1nnc(-c2ccccc2)o1 | 784 s
O=C(COc1ccc(F)cc1F)Nc1cccc(-c2ccc(N3CCOCC3)nn2)c1 | 660 s
Cn1nnc2cc(-c3noc(COc4ccc(Cl)cc4)n3)ccc21 | 994 s
CC(C)Cn1nc2n(c1=O)CCN(S(=O)(=O)c1cc(F)ccc1F)CC2 | 802 s
O=C(CN1CCN(Cc2ccc(F)cc2)C1=O)NCc1cc(F)cc(F)c1 | 826 s
Cc1cc(C(=O)N2CCC(CC(=O)NC3CC3)C2)n(C)n1 (stereo not given) | 585 s
C=CCn1c(=O)c2ccccc2n(Cc2nc(-c3ccc(F)cc3)no2)c1=O | 1050 s
CCN(CC)C(=O)c1ccc2c(c1)N(CC(=O)NCc1ccco1)C(=O)C1CCCCN21 (stereo not given) | 783 s
O=C(c1ccoc1)N1CCc2cc(-c3csc(C4CC4)n3)ccc21 | 1060 s
O=C(CCNc1cnc2cnccn12)NCc1ccc(C(F)(F)F)cc1 | 611 s
CC(C)C(=O)N1CCCc2ccc(NC(=O)c3ccco3)cc21 | 789 s
Cc1ccc(NC(=O)c2cc(C3CC3)n3nccc3n2)c(F)c1 | 1150 s
CCSc1nc2ccc(NS(=O)(=O)c3cccc4nsnc34)cc2s1 | 977 s
CC(C)c1noc(-c2ccc(-n3cnc(C(=O)NC(C)c4ccc(F)cc4)c3)nc2)n1 (stereo not given) | 1020 s
COc1ccc(F)cc1S(=O)(=O)N1C[C@@H]2C[C@H](NC(=O)c3cccs3)[C@H]1C2 | 834 s
O=C(Cc1cccs1)N1CCc2c([nH]c3ccccc23)C1c1ccc(F)cc1 (stereo not given) | 1130 s
O=c1c2cnn(-c3ccc(F)cc3)c2ncn1Cc1nc(-c2ccc(Br)cc2)no1 | 1140 s

The remaining lines, values ahead:

RP-LC retention time | Compound
723 s | O=C(c1ccc(OCC2CCCN2C(=O)c2ccc(F)cc2F)cc1)N1CCOCC1 (stereo not given)
581 s | CCc1nc2nc3c(c(N4CCN(c5ccccn5)CC4)n2n1)CCC3
607 s | Cc1c2cnn(-c3ccccc3)c(=O)c2c(C)n1C(C)C(=O)NCCN1CCOCC1 (stereo not given)
896 s | Cn1cc(SCC(=O)Nc2cccc(F)c2)c2ccccc21
856 s | CCCc1ccc(S(=O)(=O)N2CCN(c3cnn4c(C5CC5)nnc4c3)CC2)cc1
745 s | CCCn1cc(C(=O)NCCN(C)C)c(S(=O)(=O)N2CCN(c3cccc(Cl)c3)CC2)n1
980 s | O=C(c1nnc(-c2ccc(S(=O)(=O)N3CCCC3)cc2)o1)N1CCc2ccccc2C1
541 s | O=C(NCc1ccccn1)C1CN(C(=O)c2c[nH]c3ccccc23)C1
710 s | O=S(=O)(c1cccnc1)N1CC(c2nc(CCOCC3CCOCC3)no2)C1
697 s | COc1nccnc1N1CCC(N(C)C(=O)NCc2cccc(F)c2)C1 (stereo not given)
968 s | O=C(Nc1ccc2c(c1)OCCO2)C1CCCN(S(=O)(=O)Cc2ccccc2Cl)C1 (stereo not given)
956 s | Cc1ccc(S(=O)(=O)N2CCC(CCC(=O)NCc3cccc(C)c3)CC2)cc1
660 s | Cc1ccccc1NC(=O)N1CCC(c2cc3n(n2)CCCN(C)C3=O)CC1
719 s | O=C(c1noc2c1CSc1ccccc1-2)N1CCN(c2ccccn2)CC1
640 s | CCCn1cnc2cc(CNC(=O)CCc3ccccc3)ccc21
655 s | CCCNC(=O)C1CCN(c2ccc(SCC(=O)Nc3ccccc3Cl)nn2)CC1
842 s | Cc1cccc(NC(=O)c2ncn3c2C(=O)N(C2CC2)C(C)(C(=O)NC2CCCC2)C3)c1C (stereo not given)
558 s | CCOc1ccc(CC(=O)NCC2CCN(Cc3ccco3)CC2)cc1
579 s | C=CCN1CCN(C(=O)C2CCN(c3nc(NC(C)=O)c(C(=O)N4CCCC4)s3)CC2)CC1

RP-LC retention time | Compound
619 s | O=C(c1ccncc1)N1CCN(c2cc(-c3cccs3)[nH]n2)CC1
768 s | Clc1ccccc1N1CCN(Cc2nnc(-c3ccccc3)o2)CC1
608 s | CCNC(=O)N1CCC(c2noc(-c3cnccn3)n2)C1 (stereo not given)
625 s | Cc1nn(-c2ccc(F)cc2)c(C)c1S(=O)(=O)N1CCC(C(=O)N2CCN(C)CC2)CC1
650 s | CC(C)C(=O)Nc1ccc(CCc2nc3ccc(C(=O)NC4CCCC4)cc3[nH]2)cc1
696 s | O=C(c1ccco1)N1CCN=C1N1CCN(c2cccc(Cl)c2)CC1
619 s | CCOc1ccc(NS(=O)(=O)c2cc(C(=O)N3CCN(c4ccccn4)CC3)n[nH]2)cc1
783 s | Cc1cccc(NC(=O)Cn2nc(N3CCOCC3)c3ccccc3c2=O)c1
714 s | CCC1CCCCN1CCCNC(=O)C1CCCN(c2nccnc2Sc2ccccc2)C1 (stereo not given)
567 s | Cc1ccnc(N2CCC(C(=O)NCc3ccc(CN4CCCCCC4)o3)CC2)n1
846 s | CC(C)Cn1nc(CNC(=O)c2ccoc2)c2ccccc21
606 s | O=C(Cn1ccnc1-c1ccnc(N2CCCC2)c1)NCc1ccccc1Cl
788 s | O=C(NCc1ccccc1F)c1ccc2c(c1)nc1n2CCN(C2CCCCC2)C1=O
1110 s | CCc1ccc(NC(=O)C2CCCN(S(=O)(=O)c3cc(-c4noc(CC)n4)cs3)C2)cc1 (stereo not given)
632 s | CCCNc1cc(N2CCC(CCC(=O)N3CCN(c4ncccn4)CC3)CC2)ncn1
596 s | Fc1ccccc1-c1nnc(CN2CCN(c3ccccn3)CC2)o1
684 s | Cc1sc2ccn(CC(C)C)c(=O)c2c1C(=O)NCCN1CCCCCC1
593 s | CCCn1ccc2sc(C)c(C(=O)N3CCN(c4ccccn4)CC3)c2c1=O
728 s | Cc1cc(N2CCCCC2)nc(N2CCN(C(=O)C3CCCCC3)CC2)n1
